The Kd is the equilibrium constant for the complex coming apart.

Here are results for 28 compounds from patent US20180340174A1, “METHOD FOR IDENTIFICATION OF MOLECULES WITH DESIRED CHARACTERISTICS” (NANOCORE APS, priority 2014, published 2018).

The conditions of experiment [1]: Serizawa et al. 2007; bound to Polystyrene (atactic); cited from earlier work.
For experiment [2] the following is noted: Serizawa et al. 2007; bound to Polystyrene (syndiotactic); cited from earlier work.
For experiment [3] the following is noted: Serizawa et al. 2007; bound to Polystyrene (isotactic); cited from earlier work.
The conditions of experiment [4]: Seker et al. 2011; cited from earlier work.
The target in experiment [5] is T1, soluble epoxide hydrolase (sEH) (Homo sapiens, UniProt P34913).
T1 sequence (P34913 1-555): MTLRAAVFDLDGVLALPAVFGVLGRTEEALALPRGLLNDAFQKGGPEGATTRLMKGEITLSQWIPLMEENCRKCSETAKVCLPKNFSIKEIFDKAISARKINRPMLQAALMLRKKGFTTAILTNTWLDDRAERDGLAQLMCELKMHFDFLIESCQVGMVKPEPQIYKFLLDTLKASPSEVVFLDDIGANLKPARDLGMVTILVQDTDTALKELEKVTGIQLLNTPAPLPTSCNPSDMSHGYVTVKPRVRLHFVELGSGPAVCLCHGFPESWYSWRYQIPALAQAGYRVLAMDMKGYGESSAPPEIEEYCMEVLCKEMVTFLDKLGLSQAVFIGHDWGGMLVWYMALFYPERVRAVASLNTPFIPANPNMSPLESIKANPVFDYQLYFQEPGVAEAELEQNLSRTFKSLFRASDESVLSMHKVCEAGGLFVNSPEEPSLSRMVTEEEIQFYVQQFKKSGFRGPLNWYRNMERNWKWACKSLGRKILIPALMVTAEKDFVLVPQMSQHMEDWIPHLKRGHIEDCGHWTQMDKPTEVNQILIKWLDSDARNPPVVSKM
The following applies: Litovchick 2015; cited from earlier work.

The conditions of experiment [6]: Eijima et al. 2010; bound to PPV (linear); cited from earlier work.
For experiment [7] the following is noted: Eijima et al. 2010; bound to PPV (hyper-branched); cited from earlier work.
For experiment [8] the following is noted: Serizawa et al. 2007; bound to PMMA (isotactic); cited from earlier work.
For experiment [9] the following is noted: Serizawa et al. 2007; bound to PMMA (syndiotactic); cited from earlier work.
For experiment [10] the following is noted: Serizawa et al. 2007; cited from earlier work.
Experiment [11] can be described thus: Enrichment of CNT-binding peptide A2 displayed on bacteriophages versus mini-M13, blue/white colony counting.
The conditions of experiment [12]: Li et al. 2013; cited from earlier work.
The conditions of experiment [13]: Seker et al. 2011; Chen et al. 2006; cited from earlier work.
For experiment [14] the following is noted: Serizawa et al. 2007; cited from earlier work. This is another data set of the same source.
The conditions of experiment [15]: Sano et al. 2005; Meyers et al. 2007; cited from earlier work.
For experiment [16] the following is noted: Matsuno et al. 2008; bound to PLLA (layer by layer); cited from earlier work.
For experiment [17] the following is noted: Matsuno et al. 2008; bound to PMMA (atactic); cited from earlier work.
The conditions of experiment [18]: Matsuno et al. 2008; bound to PLLA (melt crystallization); cited from earlier work.
For experiment [19] the following is noted: Matsuno et al. 2008; bound to PDLA; cited from earlier work.
The conditions of experiment [20]: Matsuno et al. 2008; bound to PLLA (amorphous); cited from earlier work.
For experiment [21] the following is noted: Islam et al. 2012; bound to Ceramic fluorapatite; cited from earlier work.
The conditions of experiment [22]: Islam et al. 2012; bound to Ceramic hydroxyl-apatite; cited from earlier work.
For experiment [23] the following is noted: Weiger et al. 2010; read-out: KD to HA; cited from earlier work.
For experiment [24] the following is noted: Wang et al. 2003; cited from earlier work.
Experiment [25] can be described thus: Selection of polynucleotide-tagged molecules on carbon nanotubes without and with PPyCl repeat units in the medium (Example 15.0.0.0). Type of experiment: binding. On the procedure:
In this example library molecules (M) are peptides linked by […] (L) to DNA tags encoding the peptide. […] Identification of carbon nanotube binding molecules is described in Brown et al. (Small. 2008 April; 4 (4):416-20). The CNT target is prepared from single-walled carbon nanotubes (purified HiPCO, Carbon Nanotechnologies Inc., US) used as purchased. Bundles and individual tubes are suspended in dichloroethane by sonication and deposited on pieces of double side polished Si wafers. The CNT mats are inspected by scanning electron microscopy. A uniform, dense coverage on both sides of the 1 cm2 substrates is achieved by repeatedly depositing drops from the suspension, rinsing with isopropanol, and blow drying with nitrogen. Test enrichments are conducted inn a phosphate buffer (PKT). The enrichment for adhesion to CNT mats using solution conditions is done similarly to other searches for CNT binders. The population recovered from a single cycle of enrichment for binding to CNTs in a Tris-HCl buffer (TNT) differed from that obtained in PKT.
Binding molecules, which bind efficiently to a filler (carbon nanotubes) but not to a polymer matrix (PPyCl) of a composite material, are identified essentially as described in example 1.1.1.1. […]

Read-outs that look alike come from different tables or passages of the source. Where no end group is shown, it is not given here.

As to HLESTPG, the figures for the Kd in experiment [1], in experiment [2] and in [3] were 0.1 nM, 0.0079 nM and 0.065 nM, respectively.

With CPTSTGQAC, the Kd in [4] is 280 nM.

As to GETQCAA, the Kd was 0.034 nM in experiment [1] and 0.0074 nM in experiment [2].

Turning to FPGRPSP, the equilibrium dissociation constant (Kd) in [1] was 0.031 nM; in experiment [2], 0.0085 nM.

CTLHVSSYC: the equilibrium dissociation constant (Kd) in experiment [4] was 1100 nM.

With `CN(CCn1cccn1)C(=O)c1ccc(-c2cccc(C(=O)NC3CCCCC3)c2)nc1` [compound 12], the “enrichment over two affinity-mediated selection steps compared to the average within the naïve library” value in [5] is listed as “approximately 30,000 fold”.

As for HTDWRLGTWHETS, the dissociation constant Kd was 19000 nM in experiment [6] and 1300 nM in experiment [7].

For FSWEAFA, the results for the Kd in experiment [1], in [2] and in experiment [3] were 0.085 nM, 0.0061 nM and 0.034 nM, respectively.

As for YLTMPTP, the dissociation constant (Kd) in [1] was 0.022 nM; in experiment [2], 0.005 nM.

Take ELWRPTR: the Kd in [8] was 3600 nM; in experiment [9], 150000 nM.

With FPGHSGP, in experiment [10], the Kd is 0.1 nM.

Consider RHEPPLA, for which the figures for the Kd in [1], in experiment [2] and in experiment [3] were 0.056 nM, 0.011 nM and 0.021 nM, respectively.

Consider IFRLSWGTYFS [A2], for which the Enrichment fold in experiment [11] (1 wash, CNT 0.02 mg/ml, 1.1E+9 bacteriophages) was determined as 100 fold; in experiment [11] (3 washes, CNT 0.02 mg/ml, 1.1E+9 bacteriophages) it was 85 fold; in experiment [11] (10 washes, CNT 0.02 mg/ml, 1.1E+9 bacteriophages), 91 fold; in experiment [11] (one wash, CNT 0.02 mg/ml, 1.1E+11 bacteriophages), 2 fold; in [11] (one wash, CNT 0.2 mg/ml, 1.1E+9 bacteriophages) it was 23 fold; in experiment [11] (one wash, CNT 0.2 mg/ml, 1.1E+11 bacteriophages) it was 7 fold. Moreover, the Enrichment fold is on record as 4 fold in experiment [11] (one wash, CNT 2 mg/ml, 1.1E+9 bacteriophages); 10 fold in [11] (one wash, CNT 2 mg/ml, 1.1E+11 bacteriophages); 15 fold in experiment [11] (ten washes with 1 min. sonication at 35 kHz and 160 W during washing, CNT 0.2 mg/ml, 1.1E+11 bacteriophages); 8 fold in experiment [11] (ten washes, CNT 0.02 mg/ml, 1.1E+11 bacteriophages); 17 fold in experiment [11] (ten washes, CNT 0.2 mg/ml, 1.1E+9 bacteriophages); 19 fold in experiment [11] (ten washes, CNT 0.2 mg/ml, 1.1E+11 bacteriophages). Also, the Enrichment fold in experiment [11] (ten washes, CNT 2 mg/ml, 1.1E+9 bacteriophages) was determined as 2 fold; in experiment [11] (ten washes, CNT 2 mg/ml, 1.1E+11 bacteriophages), 3 fold; in experiment [11] (three washes with 1 min. sonication at 35 kHz and 160 W during washing, CNT 0.2 mg/ml, 1.1E+11 bacteriophages) it was 17 fold; in experiment [11] (three washes, CNT 0.02 mg/ml, 1.1E+11 bacteriophages), 16 fold; in experiment [11] (three washes, CNT 0.2 mg/ml, 1.1E+9 bacteriophages) it was 16 fold; in experiment [11] (three washes, CNT 0.2 mg/ml, 1.1E+11 bacteriophages), 16 fold. Further, the Enrichment fold in experiment [11] (three washes, CNT 2 mg/ml, 1.1E+9 bacteriophages) turned out to be 2 fold; in experiment [11] (three washes, CNT 2 mg/ml, 1.1E+11 bacteriophages) it was 4 fold. The Kd in experiment [12] was 20000 nM.

As to GETRAPL, the Kd in experiment [1] was 0.067 nM; in experiment [2], 0.0067 nM; in experiment [3], 0.036 nM.

As for CHKKPSKSC, the Kd in experiment [13] was 4.1 nM.

Regarding HKPDANR, in experiment [14], the Kd was 0.025 nM.

For the compound RKLPDAPGMHTW, the Kd in experiment [15] is 13000 nM.

With THLPWQT, the Kd in experiment [10] was 0.067 nM.

As for ELWSIDTSAHRK, the Kd in experiment [6] is 13000 nM; in experiment [7] it was 27000 nM.

As for QTWPPPLWFSTS, the equilibrium dissociation constant (Kd) in [13] was 810 nM.

Consider QLMHDYR, for which the dissociation constant (Kd) in [16] is 67000 nM; in [17] it was 180000 nM; in experiment [18] it was 16000 nM; in [19], 21000 nM; in [20] it was 150000 nM.

For the compound RLNPPSQMDPPF, in experiment [13], the dissociation constant (Kd) is 8300 nM.

For the compound SCSDCLKSVDFIPSSLASS, the dissociation constant (Kd) in experiment [15] was 250 nM.

As for KPRSVSG, the dissociation constant Kd was 5400 nM in experiment [21] and 7200 nM in experiment [22].

Consider SVSVGMKPSPRPGGGK, for which the Kd in [23] is 14100 nM.

As to HTAQSTA, the Kd in experiment [1] was 0.014 nM; in experiment [2] it was 0.01 nM.

HWKHPWGAWDTL: the Kd in experiment [24] is 50000 nM.

Consider “polynucleotide-tagged THRTSTLDYFVI-pyrene: polynucleotide-tagged peptide-pyrene which can bind to both carbon nanotubes and PPyCl (also: polynucleotide tag, site not given here)”, for which the “Outcome of selection on carbon nanotubes” value is reported as “identified as carbon nanotube binding molecules” in [25] (first experiment, medium as in example 1.1.1.1) and “removed during the partitioning step” in experiment [25] (second experiment, medium comprises repeat units of PPyCl).
